Results from paper PMC8298633, “Cannabis constituents interact at the drug efflux pump BCRP to markedly increase plasma cannabidiolic acid concentrations” (Scientific Reports, 2021).
“And” between values parts separate entries of the source, which are not always exact repeats. Equal values may be shown once.

Columns and labels:
[1] = Pharmacokinetic study: plasma cannabinoids after single oral gavage of full-spectrum cannabis extract or individual cannabinoid; settings: for half-life: t1/2, mouse plasma; for Detection in plasma following oral administration of the full-spectrum extract: single oral dose of extract
Experimental: Drugs were administered by oral gavage in a volume of 5 mL/kg. Wildtype male and female mice (postnatal day 21–28, P21-28) received a single oral gavage of either the full-spectrum cannabis extract or an individual cannabinoid. Cannabinoid doses within the full-spectrum extract or as an individual cannabinoid were as follows in mg/kg: CBDA and Δ^9-THCA, 50; CBD, 25; Δ^9-THC, 15; CBC, 9; CBDVA and CBGA, 7; CBN, 2.5; CBG, 1.5; CBDV and Δ^9-THCV, < 1 (Fig. 1a). At selected time points (15–240 min), mice were anesthetized with isoflurane and whole blood was collected by cardiac puncture. Plasma was isolated by centrifugation (9000 g for 10 min, 4 °C) and stored at − 80 °C until assayed.
Concentrations of cannabinoids in plasma samples were quantified as described previously, [24], [58]. […] The organic layer was isolated by centrifugation (4000 g for 10 min) and evaporated to dryness with N2. Samples were reconstituted in acetonitrile and 0.1% formic acid in water (1:3.3, v/v) for supported-liquid extraction (SLE) with methyl tert-butyl ether (MTBE) using Biotage Isolute SLE+ columns (Uppsala, SWE). […] Quantification of cannabinoids was achieved by comparing samples to standards prepared with known amounts of drug.
Plasma concentrations at each time point were averaged and pharmacokinetic parameters were calculated by noncompartmental analysis. Elimination rate constants were determined by linear regression of the terminal component of the concentration–time curve using GraphPad Prism 8.2 (La Jolla, USA). The log-linear trapezoidal method was used to calculated total drug exposure (area under concentration–time curve) using equations described previously.

[2] = Bidirectional transwell transport assay, wildtype MDCK cell monolayers; settings: dog, MDCK
Experimental: (§1) We first aimed to determine whether the cannabinoids found in the full-spectrum cannabis extract were substrates of P-glycoprotein and BCRP by using MDCK cells expressing human P-glycoprotein or BCRP in vitro. Transwell assays were conducted to assess bidirectional transport of the cannabinoids detected in plasma following administration of the full-spectrum cannabis extract (CBD, CBDA, CBDVA, CBGA, Δ^9-THC and Δ^9-THCA), including the respective neutral compounds (CBDV and CBG) across wildtype, BCRP and P-glycoprotein MDCK cell monolayers. […] BCRP and P-glycoprotein preferentially transport substrates in the B > A direction.
(§2) Media in the donor chamber was then replaced with that containing 10 µM of an individual cannabinoid in the presence of either vehicle or inhibitor and returned to 37 °C. Aliquots (25 or 50 µL) were removed from the accepter chamber at 60, 120, 180 and 240 min.
(§3) Cannabinoids were analyzed as described above.

wildtype MDCK cells = assay: as above; settings: wildtype MDCK cells, 10 µM cannabinoid; for P (A > B): apical to basolateral
Experimental: as §1, §2, §3

BCRP [3] = target: T1, BCRP (Homo sapiens, UniProt Q9UNQ0); assay: Bidirectional transwell substrate assay, MDCK cells expressing BCRP (with or without elacridar); settings: for P (A > B) / P (B > A) / r (transport efflux ratio) / efflux ratio at 240 min, 10 µM: BCRP MDCK cells; for P (A > B): apical to basolateral; for P (B > A): basolateral to apical; for BCRP substrate status: human BCRP MDCK cells vs wildtype, with elacridar control; for efflux ratio at 240 min, 10 µM: human, r (transport efflux ratio)
T1 sequence (Q9UNQ0 1-655): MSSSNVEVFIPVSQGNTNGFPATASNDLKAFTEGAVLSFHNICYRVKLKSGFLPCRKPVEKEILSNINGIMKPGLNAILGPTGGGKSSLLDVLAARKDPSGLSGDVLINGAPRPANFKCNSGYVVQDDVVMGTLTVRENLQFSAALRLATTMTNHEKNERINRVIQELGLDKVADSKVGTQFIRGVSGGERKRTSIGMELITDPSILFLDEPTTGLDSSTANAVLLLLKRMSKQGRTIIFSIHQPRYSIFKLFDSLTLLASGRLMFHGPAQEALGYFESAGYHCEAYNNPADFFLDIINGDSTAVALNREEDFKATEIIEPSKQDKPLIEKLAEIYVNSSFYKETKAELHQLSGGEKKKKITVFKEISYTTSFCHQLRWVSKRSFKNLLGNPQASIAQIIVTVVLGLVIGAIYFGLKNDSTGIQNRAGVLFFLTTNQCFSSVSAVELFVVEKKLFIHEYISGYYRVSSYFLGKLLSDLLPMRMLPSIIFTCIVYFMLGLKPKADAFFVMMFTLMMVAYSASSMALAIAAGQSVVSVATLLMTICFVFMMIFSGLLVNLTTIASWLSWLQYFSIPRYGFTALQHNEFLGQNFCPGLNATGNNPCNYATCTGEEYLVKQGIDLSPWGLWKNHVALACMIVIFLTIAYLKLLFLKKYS
Experimental: as §1, §2, §3

P-glycoprotein = P-glycoprotein (Homo sapiens, UniProt P08183); assay: Bidirectional transwell substrate assay, MDCK cells expressing P-glycoprotein; settings: for P (A > B): apical to basolateral; for P (B > A): basolateral to apical; for P-glycoprotein substrate status: human P-glycoprotein MDCK cells vs wildtype
P-glycoprotein, sequence (P08183 whole entry): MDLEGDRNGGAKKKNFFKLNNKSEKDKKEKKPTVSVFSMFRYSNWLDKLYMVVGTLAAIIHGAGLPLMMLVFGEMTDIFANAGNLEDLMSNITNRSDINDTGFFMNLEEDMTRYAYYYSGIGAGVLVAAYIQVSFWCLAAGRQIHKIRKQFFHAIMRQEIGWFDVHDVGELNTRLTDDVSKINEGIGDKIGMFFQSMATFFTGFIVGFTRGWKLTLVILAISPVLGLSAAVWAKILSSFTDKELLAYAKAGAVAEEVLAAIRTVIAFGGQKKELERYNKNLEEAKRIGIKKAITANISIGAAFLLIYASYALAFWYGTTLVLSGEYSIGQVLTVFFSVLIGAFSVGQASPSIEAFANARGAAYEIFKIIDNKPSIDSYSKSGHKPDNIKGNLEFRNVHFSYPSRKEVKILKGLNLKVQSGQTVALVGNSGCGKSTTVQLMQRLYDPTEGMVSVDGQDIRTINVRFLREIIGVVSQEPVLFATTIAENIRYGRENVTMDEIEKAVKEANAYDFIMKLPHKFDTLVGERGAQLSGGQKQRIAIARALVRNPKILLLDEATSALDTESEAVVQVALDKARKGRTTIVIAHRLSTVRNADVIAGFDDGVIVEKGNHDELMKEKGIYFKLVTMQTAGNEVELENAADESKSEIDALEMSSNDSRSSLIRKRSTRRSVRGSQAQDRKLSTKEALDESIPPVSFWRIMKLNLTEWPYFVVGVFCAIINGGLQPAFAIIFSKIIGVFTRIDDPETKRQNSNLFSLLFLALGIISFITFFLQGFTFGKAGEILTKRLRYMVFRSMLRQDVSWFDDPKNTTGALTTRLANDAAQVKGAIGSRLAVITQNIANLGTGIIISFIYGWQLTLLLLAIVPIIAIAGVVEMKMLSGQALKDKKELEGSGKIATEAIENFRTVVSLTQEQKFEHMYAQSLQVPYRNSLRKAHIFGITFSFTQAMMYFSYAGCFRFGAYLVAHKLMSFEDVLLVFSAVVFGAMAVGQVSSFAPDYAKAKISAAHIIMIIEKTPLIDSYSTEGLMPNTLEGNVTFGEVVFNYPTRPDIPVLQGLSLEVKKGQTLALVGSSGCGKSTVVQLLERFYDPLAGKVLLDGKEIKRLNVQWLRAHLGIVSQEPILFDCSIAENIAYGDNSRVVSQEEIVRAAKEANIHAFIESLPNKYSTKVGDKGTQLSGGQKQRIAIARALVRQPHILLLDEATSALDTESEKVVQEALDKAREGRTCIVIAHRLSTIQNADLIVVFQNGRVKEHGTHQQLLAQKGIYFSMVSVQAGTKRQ
Experimental: as §1, §2, §3

BCRP [4] = target: T1, BCRP; assay: Inhibition of BCRP-mediated transport of CBDA by cannabinoids (transwell, BCRP MDCK cells)
Experimental: Cannabinoids were tested at 10 µM. […] Data are expressed as means ± SEM, with n = 4 per time point. […] Schematic created using BioRender.com.
as §3

Bcrp1 = settings: mouse Bcrp1; cited from earlier work
BCRP [5] = target: T1, BCRP; assay: Inhibition of BCRP-mediated transport of prazosin (transwell, BCRP MDCK cells); settings: for Effect on BCRP-mediated transport of prazosin: 10 µM, compared to vehicle
[6] = set-up: method as in PMID 33155722; settings: healthy individuals, oral cannabis decoction and oil containing 3–6 times the amount of CBDA compared to CBD; cited from earlier work
[7] = both, mouse, plasma, po, AUC, mouse plasma, oral, administered as individual cannabinoid, doses mg/kg: CBD 25, CBDA 50, CBDVA 7, THC 15, THCA 50
[8] = both, mouse, plasma, po, AUC, mouse plasma, oral, administered in full-spectrum extract, doses mg/kg: CBD 25, CBDA 50, CBDVA 7, CBGA 7, THC 15, THCA 50
[9] = both, mouse, plasma, po, oral, administered as individual cannabinoid, doses mg/kg: CBD 25, CBDA 50, CBDVA 7, THC 15, THCA 50
[10] = both, mouse, plasma, po, oral, administered in full-spectrum extract, doses mg/kg: CBD 25, CBDA 50, CBDVA 7, CBGA 7, THC 15, THCA 50
[11] = both, mouse, plasma, po, tmax, mouse plasma, oral, administered as individual cannabinoid, doses mg/kg: CBD 25, CBDA 50, CBDVA 7, CBGA 7, THC 15, THCA 50
[12] = both, mouse, plasma, po, tmax, mouse plasma, oral, administered in full-spectrum extract, doses mg/kg: CBD 25, CBDA 50, CBDVA 7, CBGA 7, THC 15, THCA 50
[13] = mouse plasma, oral, equivalent doses
[14] = 10 µM cannabinoid, substrate threshold 1.5
[15] = with elacridar 10 µM, 10 µM cannabinoid in the presence of 10 µM elacridar
[16] = P-glycoprotein MDCK cells, 10 µM cannabinoid
[17] = mouse plasma, oral, administered as individual cannabinoid, doses mg/kg: CBD 25, CBDA 50, CBDVA 7, THC 15, THCA 50
[18] = mouse plasma, oral, administered in full-spectrum extract, doses mg/kg: CBD 25, CBDA 50, CBDVA 7, CBGA 7, THC 15, THCA 50
[19] = BCRP MDCK cells, cannabinoids tested at 10 µM

| SMILES | AUC [1, 7] [ng·h/mL] | AUC [1, 8] [ng·h/mL] | half-life [1, 9] [h] | half-life [1, 10] [h] | tmax [1, 11] [h] | tmax [1, 12] [h] | Total plasma exposure in full-spectrum extract relative to individual compound, fold lower [1, 13] | Detection in plasma following oral administration of the full-spectrum extract ([1]; mouse plasma) | Papp B→A at 240 min, 10 µM [2] [×10⁻⁶ cm/s] | efflux ratio at 240 min, 10 µM [2] | P (A > B) (wildtype MDCK cells) | P (A > B) (BCRP [3]; 10 µM cannabinoid) | P (B > A) (BCRP [3]; 10 µM cannabinoid) | r (transport efflux ratio) (BCRP [3]; [14]) | BCRP substrate status (BCRP [3]) | efflux ratio at 240 min, 10 µM (BCRP [3]; [15]) | P (A > B) (P-glycoprotein; [16]) | P (B > A) (P-glycoprotein; [16]) | P-glycoprotein substrate status (P-glycoprotein) | Effect on BCRP-mediated transport of prazosin (BCRP [5]) | also measured |
| --- | --- | --- | --- | --- | --- | --- | --- | --- | --- | --- | --- | --- | --- | --- | --- | --- | --- | --- | --- | --- | --- |
| C=C(C)[C@@H]1CCC(C)=C[C@H]1c1c(O)cc(CCCCC)cc1O [CBD, cannabidiol] | 1730 | 717 | 3.62 | 8.07 | 1.5 | ≤ 1 | 2–4 × | detected | 250 ± 30 | 0.6 ± 0.2 | 41 ± 5 × 10^−5 cm/s | 52 ± 8 × 10^−5 cm/s | 86 ± 20 × 10^−5 cm/s | 1.6 ± 0.3 | BCRP substrates | 1 ± 0.2 | 25 ± 7 × 10^−5 cm/s | 15 ± 3 × 10^−5 cm/s | not P-glycoprotein substrates | identified as an inhibitor of BCRP | Cmax ([1]; both, mouse, plasma, po, 25 mg/kg, Cmax, mouse plasma, oral, administered as individual cannabinoid, doses mg/kg: CBD 25, THC 15, THCA 50): 304 ± 28 ng/mL; Cmax ([1]; both, mouse, plasma, po, 25 mg/kg, Cmax, mouse plasma, oral, administered in full-spectrum extract, doses mg/kg: CBD 25, THC 15, THCA 50): 60 ± 6 ng/mL; efflux ratio at 240 min, 10 µM (BCRP [3]; [14]): > 1.5; Effect on BCRP-mediated transport of CBDA (BCRP [4]; 10 µM, BCRP MDCK cells, compared to vehicle): Neither CBD nor CBDVA affected CBDA transport via BCRP; r (transport efflux ratio) of CBDA in the presence of inhibitor (BCRP [4]; human, 240 min, 10 µM): 5.9 ± 0.1; Bcrp1 substrate status (Bcrp1): not a substrate of mouse Bcrp1 |
| C=C(C)[C@@H]1CCC(C)=C[C@H]1c1c(O)cc(CCCCC)c(C(=O)O)c1O [CBDA, cannabidiolic acid] | 27300 | 380000 | 3.3 | 5.17 | 1.5 | ≤ 1 | – | detected | 370 ± 90 | 1.2 ± 0.3 | 31 ± 8 × 10^−5 cm/s | 38 ± 11 × 10^−5 cm/s | 162 ± 24 × 10^−5 cm/s | – | BCRP substrates | 0.4 ± 0.4 | 24 ± 7 × 10^−5 cm/s | 38 ± 4 × 10^−5 cm/s | not P-glycoprotein substrates | – | Cmax ([1]; both, mouse, plasma, po, Cmax, mouse plasma, oral, administered as individual cannabinoid, doses mg/kg: CBDA 50, CBDVA 7, CBGA 7): 6000 ± 1000 ng/mL; Cmax ([1]; both, mouse, plasma, po, Cmax, mouse plasma, oral, administered in full-spectrum extract, doses mg/kg: CBDA 50, CBDVA 7, CBGA 7): 47000 ± 4000 ng/mL; Total plasma exposure (AUC) in full-spectrum extract relative to individual compound, fold higher ([1]; mouse plasma, oral, 50 mg/kg, equivalent doses): ~14 × and 14 ×; r (transport efflux ratio) (P-glycoprotein; P-glycoprotein MDCK cells, 10 µM cannabinoid, substrate threshold 2.5): 1.5 ± 0.3; efflux ratio at 240 min, 10 µM (P-glycoprotein; human, MDCK-MDR1, r (transport efflux ratio), P-glycoprotein MDCK cells, 10 µM cannabinoid, substrate threshold 2.5): < 2.5; Serum CBDA concentrations relative to serum CBD concentrations [6]: 20–30 times |
| CCCCCc1cc(O)c2c(c1)OC(C)(C)[C@@H]1CCC(C)=C[C@@H]21 [Δ^9-THC, Δ^9-tetrahydrocannabinol, reference compound] | – | – | – | – | – | – | 2–4 × | detected | – | – | 9 ± 3 × 10^−5 cm/s | 54 ± 17 × 10^−5 cm/s | 74 ± 28 × 10^−5 cm/s | 1.4 ± 0.5 | weak substrates of BCRP | – | 9 ± 3 × 10^−5 cm/s | 4 ± 1 × 10^−5 cm/s | not P-glycoprotein substrates | not prazosin transport | tmax ([1]; mouse plasma, oral, administered as individual cannabinoid, doses mg/kg: CBD 25, CBDA 50, CBDVA 7, CBGA 7, THC 15, THCA 50): 1.5 h; AUC [1, 17]: 1930 ng·h/mL; t1/2 [1, 17]: 3.5 h; Cmax ([1]; mouse plasma, oral, administered as individual cannabinoid, doses mg/kg: CBD 25, THC 15, THCA 50): 341 ± 40 ng/mL; AUC [1, 18]: 1030 ng·h/mL; t1/2 [1, 18]: 5.5 h; tmax [1, 18]: ≤ 1 h; tmax ([1]; mouse plasma, oral, administered in full-spectrum extract, doses mg/kg: CBD 25, CBDA 50, CBDVA 7, CBGA 7, THC 15, THCA 50, listed as THC): 1 h; Cmax ([1]; mouse plasma, oral, administered in full-spectrum extract, doses mg/kg: CBD 25, THC 15, THCA 50): 127 ± 15 ng/mL; r (transport efflux ratio) (wildtype MDCK cells): 0.3 ± 0.3; P (B > A) (wildtype MDCK cells; basolateral to apical): 3 ± 1 × 10^−5 cm/s; r (transport efflux ratio) (BCRP [3]; 10 µM cannabinoid in the presence of 10 µM elacridar): 0.7 ± 0.2; P (A > B) of CBDA in the presence of inhibitor (BCRP [4]; [19]): 21 ± 3 × 10^−5 cm/s; P (B > A) of CBDA in the presence of inhibitor (BCRP [4]; [19]): 47 ± 4 × 10^−5 cm/s; P (A > B) of prazosin in the presence of inhibitor (BCRP [5]; 10 µM inhibitor, 1 µM prazosin): 18 ± 2 × 10^−2 cm/s; P (B > A) of prazosin in the presence of inhibitor (BCRP [5]; 10 µM inhibitor, 1 µM prazosin): 201 ± 8 × 10^−2 cm/s |
